# In PMC10487625, “Betaxolol as a Potent Inhibitor of NDM-1-Positive E. coli That Synergistically Enhances the Anti-Inflammatory Effect in Combination with Meropenem” (International Journal of Molecular Sciences, 2023):
# Biological target: T1, New Delhi metallo-β-lactamase (NDM-1) (Escherichia coli, UniProt E5KIY2)
# T1 construct: gene blaNDM-1; recombinant NDM-1 purified from E. coli BL21(DE3)-pET-32a(+)-blaNDM-1
# Assay: nitrocefin hydrolysis assay with purified NDM-1, OD492
# Type: biochemical
# T1 sequence (E5KIY2 29-270 limits assumed): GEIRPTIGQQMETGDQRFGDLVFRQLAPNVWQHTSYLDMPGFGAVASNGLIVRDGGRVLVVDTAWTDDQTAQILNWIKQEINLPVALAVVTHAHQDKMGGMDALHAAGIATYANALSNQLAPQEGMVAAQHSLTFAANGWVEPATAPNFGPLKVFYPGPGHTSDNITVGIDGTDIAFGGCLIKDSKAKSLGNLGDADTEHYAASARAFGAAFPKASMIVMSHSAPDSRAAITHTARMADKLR
smiles,measurement,value
"CC(C)NCC(O)COc1ccc(CCOCC2CC2)cc1 (stereo not shown) [BET, betaxolol]",IC50,19.3 ± 0.9 µM
